Like-named read-outs stand apart in the source and are kept apart here.
Assays:
[1] = molecular target: T1, full-length human Tau (hTau40) (Homo sapiens, UniProt P10636); experiment: Tau oligomerization inhibition assay (heparin-induced, thioflavin S fluorescence); format: biochemical
T1 construct: The full-length human Tau (hTau40) was expressed in a transformed E. coli BL21 (DE3) strain; made in house; host or cells: E. coli BL21 (DE3)
Protocol: Tau oligomerization inhibition assay was performed at 37 °C in 96-well plates by monitoring thioflavin-S fluorescence at 520 nm after excitation at 440 nm using a microplate reader (POLARstar Omega system, BMG Labtech, Paris, France). The Tau oligomerization process was induced by heparin. […] The plates were shaken at 200 rpm for 10 s before each measurement. The real value of fluorescence at the plateau was determined using SciDAVis v1.23 software. Data were fitted to the SciDAVis built-in ExpGrowth equation by means of nonlinear least-squares regression analysis. Y = Y0 + A × exp(x/t)(1)
The unscaled Levenberg–Marquardt algorithm was used, and initial values were given to Y0, A, and t. The final Y0 value of the model corresponds to the plateau value. The plateau values were then used to calculate the Tau oligomerization inhibition percentage. The IC50 for each compound was calculated from the scatter plot of Tau oligomerization inhibition (in percentage) as a function of log10 of compound concentration. The IC50 value (in µM) thus corresponds to ten raised to the power of […].

[2] = molecular target: T2, Tau protein (full-length human Tau, hTau40) (Homo sapiens, UniProt P10636); experiment: Tau intrinsic fluorescence quenching, modified Stern–Volmer binding parameters; details: 5 µM Tau, buffer B pH 6.8, mean ± SD; for Kd: read-out: Equilibrium Binding Constants to Tau, KD
T2 construct: The full-length human Tau (hTau40) was expressed in a transformed E. coli BL21 (DE3) strain; made in house; host or cells: E. coli BL21 (DE3)
T2 sequence (P10636 1-441 isoform P10636-8): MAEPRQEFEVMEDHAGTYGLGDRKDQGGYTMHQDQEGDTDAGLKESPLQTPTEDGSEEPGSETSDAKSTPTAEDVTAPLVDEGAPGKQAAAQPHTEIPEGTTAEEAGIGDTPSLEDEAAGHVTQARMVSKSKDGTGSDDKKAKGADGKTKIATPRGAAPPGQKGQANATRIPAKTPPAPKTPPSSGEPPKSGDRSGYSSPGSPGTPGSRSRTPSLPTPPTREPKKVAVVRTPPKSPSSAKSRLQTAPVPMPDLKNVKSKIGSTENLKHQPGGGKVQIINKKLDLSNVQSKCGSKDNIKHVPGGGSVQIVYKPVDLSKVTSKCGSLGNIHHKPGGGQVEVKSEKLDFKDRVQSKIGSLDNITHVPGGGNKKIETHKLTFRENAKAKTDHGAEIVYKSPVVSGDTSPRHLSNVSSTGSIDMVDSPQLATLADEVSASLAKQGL
Protocol: Fluorescence measurements were performed with a Horiba Jobin Yvon FluoroMax-3 spectrofluorometer. […] For experiments, the excitation wavelength was fixed at 275 nm, and the emission spectra were recorded between 280 nm and 500 nm at room temperature. The inner filter effects were corrected according to Lakowicz as follows:F = Fobs × exp{(Aem + Aex)/2}(2) where Fobs and F are the observed and corrected fluorescence values at the emission wavelength of 303 nm. Aex and Aem are the absorptions at the excitation and emission wavelengths, respectively, calculated with A = ε.l.C, in which ε is the extinction coefficient of Tau, l is the path length of cuvette, and C is Tau concentration.
The total fluorescence in the absence of quencher (F0) is given by:F0 = F0a + F0b(4) where 0 refers to the fluorescence intensity in the absence of quencher.
In the presence of quencher, we defined fa as the fraction of the initial fluorescence of Tau accessible to compounds:fa = F0a/(F0a + F0b)(5)
Therefore, the intensity of the accessible fraction (fa) is decreased according to the Stern–Volmer equation, whereas the buried fraction is not quenched, as given by:F = {F0a/(1 + K.[Q])} + F0b(6)
Then, subtraction of Equations (6) and (4) yields:ΔF = F0 − F = F0a × {K.[Q]/(1 + K.[Q])}(7)
At last, inversion of Equation (7) followed by division into Equation (4) yields:F0/ΔF = {1/(fa.K.[Q])} + 1/fa(8)
We applied this modified form of the Stern–Volmer equation to graphically determine the values of fa and K. For our experiments, we plotted F0/ΔF against 1/[Q], then we determined the fa value at the point of intersection with the y-axis, while the slope represented (faK)^−1.

U87 glioblastoma cells = experiment: MTT cell viability assay, U87; format: cell-based, human; details: Homo sapiens; U87, 72 h, MTT; mean ± SEM; read-out: IC50 (metabolic activity)
Protocol: (§1) Cells harvested from sub-confluent monolayers were seeded at 15,000 cells per mL in a 96-well microtiter plate (Cambridge Technology, Labège, France) and cultured for 24 h under standard conditions. Standard medium was then replaced by fresh medium containing no drugs or compounds at different concentrations. The surviving cells were quantified after 72 h by the MTT assay, according to the manufacturer’s instructions. Briefly, 20 µL of 3-(4,5-diMethylThiazol-2-yl)-2,5diphenyl Tetrazolium bromide (MTT) solution at 5 mg.mL^−1 was added to cells for 3 h at 37 °C. The supernatant was discarded and replaced by 100 µL of dimethyl sulfoxide to dissolve formazan crystals. The absorbance was then read at 600 nm by spectrophotometry. For all concentrations of a given compound, cell viability was expressed as the percentage of the ratio between the mean absorbance of treated cells and the mean absorbance of untreated cells. Three independent experiments were performed, and the data were expressed as percentage of survival (using the untreated cells as 100%) and subjected to statistical analysis (n = 3). The IC50 was calculated using the Chou and Talalay method.

U251 glioblastoma cells = experiment: MTT cell viability assay, U251; format: cell-based; details: Homo sapiens, U-251, U251, 72 h, mean ± SEM, read-out: IC50 (metabolic activity)
Protocol: as §1

U138 glioblastoma cells = experiment: MTT cell viability assay, U138; format: cell-based; details: Homo sapiens, U138, 72 h, mean ± SEM, read-out: IC50 (metabolic activity)
Protocol: as §1

T98G glioblastoma cells = experiment: MTT cell viability assay, T98G; format: cell-based; details: Homo sapiens, 72 h, mean ± SEM, read-out: IC50 (metabolic activity)
Protocol: as §1

[3] = tested on: Caco-2 colon adenocarcinoma cells; experiment: MTT cell viability assay, Caco-2; format: cell-based; details: Homo sapiens, Caco-2 (not expressing Tau), 72 h, mean ± SEM, read-out: IC50 (metabolic activity)
Protocol: as §1

mature Tau aggregates = molecular target: T3, mature Tau aggregates (Homo sapiens, UniProt P10636); experiment: Dissolution of preformed (mature) Tau aggregates, ThS fluorescence; format: biochemical; details: 10, 30 and 100 µM added to ThS-labelled aggregates after 8 h, 37 °C
T3 construct: The full-length human Tau (hTau40) was expressed in a transformed E. coli BL21 (DE3) strain; made in house; host or cells: E. coli BL21 (DE3)
T3 sequence (P10636 1-441 isoform P10636-8): as above
Protocol: Moreover, we performed a qualitative study of the ability of QCT and compounds 1, 5, and 9 to dissolve preformed Tau aggregates (Figure 3).
Eight-hour time courses were performed with ThS to monitor heparin-induced Tau aggregation by spectrofluorometry at 520 nm (37 °C), then 10, 30, and 100 µM of compounds (curves b–d) were added to the ThS-labelled Tau aggregates. A control was performed without compound (curve a).

[4] = tested on: GBM cells (U87, U251, U138, and T98G); experiment: MTT assay across the Tau-expressing GBM cell models; format: cell-based, human
Protocol: as §1

U87 shCTRL cells [5] = experiment: Cell cycle by flow cytometry (propidium iodide), U87 shCTRL; format: cell-based, human; details: 48 h, compounds 10 µM, NOC 1 µM
Protocol: (§2) Measurements of cell cycle from DNA content were performed by flow cytometry as described before. Briefly, 4.10^5 cells in exponential growth were seeded in 6-well plates. After 24 h, they were treated with 10 µM of compounds for 48 h. Nocodazole was used as a positive control with a concentration of 1 µM. The trypsinized cells were harvested and then centrifuged (1200 rpm, 5 min, at room temperature). The cell pellet was resuspended in 1 mL of PBS 1× at 4 °C, and then an extra 4 mL of cold PBS was added to wash the pellet. Cells were then centrifuged again (1200 rpm, 5 min, at 4 °C). To fixate the cells, the pellet was resuspended in 100 µL of cold 70% ethanol, then an additional 900 µL was added and cells were incubated for 30 min at −20 °C. After that, 9 mL of cold PBS was added, and cells were centrifuged (2000 rpm, 5 min, at 4 °C) to remove ethanol. The cell pellet was then resuspended in the staining mix containing 50 µg.mL^−1 of propidium iodide (Molecular Probes, Paris, France) and 100 µg.mL^−1 of RNAse A (Sigma-Aldrich, Saint-Quentin-Fallavier, France) in PBS for 20 min at room temperature in darkness. Samples were analyzed on a Beckman–Coulter–Gallios flow cytometer using the Kaluza for Gallios Acquisition v1.0 software. Propidium iodide was excited at 488 nm, and fluorescence was analyzed at 620 nm on channel FL-3. For the analysis, there is considerable overlap between early S phase and G1 and between late S phase and G2/M due to broadening of the distribution caused by variability in the staining of the cells and instrumental variability. Therefore, the percentages of cells in the sub-G1, G1, S, and G2/M phases of the cell cycle were calculated using the Watson et al. algorithm for cell cycle analysis in Kaluza for Gallios Analysis v2.1 software. The software automatically adjusted gates based on PI median fluorescence intensity of the cells and their frequency among total cells. The number of cells in each phase was divided by the total number of analyzed cells, and the values were reported as percentage of the total cells for each cell cycle phase.

U87 shTau cells [6] = experiment: Cell cycle by flow cytometry (propidium iodide), U87 shTau; format: cell-based, human; details: 48 h, compounds 10 µM, NOC 1 µM
Protocol: as §2

U87 shCTRL cells [7] = experiment: Mitotic index by high-content imaging, U87 shCTRL; format: cell-based, human; details: 48 h, 5-times IC50 of compounds
Protocol: (§3) For scoring mitotic indexes, an automated high-content screening confocal microscopy approach was employed to identify cells undergoing mitosis from a large population of cells. For this, cells nuclei were stained with DAPI. Briefly, fibronectin-coated clear-glass-bottom black 96-well imaging plates were seeded with 100 µL of cell suspension (60,000 cell.mL^−1) in each well, with both U87 shCTRL and U87 ShTau cell lines. Cells were treated with 5-times IC50 of compounds for 48 h, then they were fixated inside the palates with 4% formaldehyde (in PBS pH 7.4) for 20 min at room temperature, permeabilized with PBS-Triton X-100 0.5% for 10 min at room temperature. DNA was then stained with DAPI (10 µg.mL^−1) for 5 min at room temperature and in the darkness. After being washed, cells were kept in PBS at 4 °C and imaged while in PBS. Automated confocal microscopy was carried out using an Opera Phenix (PerkinElmer) high-content screening microscope using a 20× Air/0.4 NA air objective. For each condition, 6 wells were prepared and a total of 61 fields were acquired for each well. Image analysis was performed using Harmony high-content analysis v4.8 software and PhenoLOGIC Machine Learning technology, which uses a learn-by-example approach. As a first step, nuclei were segmented and multiple parameters for these nuclei were calculated using Harmony v4.8 software building blocks. After training, PhenoLOGIC Machine Learning then selects the best parameters to detect nuclei undergoing the M phase of mitosis. From this, the mitotic index of each condition was calculated by dividing the number of cells undergoing mitosis over the total number of cells.

U87 shTau cells [8] = experiment: Mitotic index by high-content imaging, U87 shTau; format: cell-based, human; details: 48 h, 5-times IC50 of compounds
Protocol: as §3

R3 peptide = tested on: R3 peptide; set-up: method as in PMID 34743390; details: 10 µM, AFM analysis; cited from earlier work
[9] = 2 µM Tau, heparin-induced, ThS, buffer A pH 6.9, 25 °C per table footnote (37 °C in method), mean ± SD, read-out: Inhibition of Aggregation IC50

T1 sequence (P10636 1-441 isoform P10636-8): as above

Row | IC50 [1, 9] | Equilibrium Binding Constants to Tau, fA (Tyr accessible fraction) [2] | Kd [2] | IC50 (U87 glioblastoma cells) | IC50 (U251 glioblastoma cells) | IC50 (U138 glioblastoma cells) | IC50 (T98G glioblastoma cells) | IC50 ([4]; Homo sapiens, U87, U251, U138, T98G, 72 h MTT, read-out: IC50 among the Tau-expressing GBM cell models) | SMILES | IC50 [3] | Ability to dissolve mature (preformed) Tau aggregates (mature Tau aggregates) | efficacy fold higher than 13 and 15 ([4]; GBM cells) | %G1 (cells in G1 phase) (U87 shCTRL cells [5]) | %G2/M (cells in G2/M phase) (U87 shCTRL cells [5]) | %G1 (cells in G1 phase) (U87 shTau cells [6]) | %G2/M (cells in G2/M phase) (U87 shTau cells [6]) | mitotic index (U87 shCTRL cells [7]) | mitotic index (U87 shTau cells [8]) | IC50 [1] | R3 peptide fibrillation (R3 peptide)
1 | 92 ± 9.6 µM | 0.39 ± 0.08 | 7 ± 2.3 µM | 22.4 ± 5.2 µM | 6.7 ± 2.2 µM | 6.4 ± 1.3 µM | 4.2 ± 0.7 µM | 4.2 to 22.4 µM | Nc1nc(-c2ccc3oc(-c4ccccc4)cc(=O)c3c2)cs1 [Compound 1] | 33.2 ± 13.3 µM | able to dissolve mature Tau aggregates |  |  |  |  |  |  |  |  | 
2 | 11.7 ± 2 µM | 0.21 ± 0.04 | 4.2 ± 0.3 µM | 1.1 ± 0.2 µM | 1.3 ± 0.5 µM | 1.4 ± 0.2 µM | 2.7 ± 0.5 µM |  | COc1c(-c2cccc(F)c2)oc2ccc3nc(N)sc3c2c1=O [Compound 14] |  |  | up to 6 fold |  |  |  |  |  |  |  | 
3 |  |  |  |  |  |  |  |  | COC(=O)Nc1nc2ccc(C(=O)c3cccs3)cc2[nH]1 [NOC, nocodazole, reference compound] |  |  |  | 10 ± 3% | 82 ± 6% | 9 ± 7% | 77 ± 4% | 9.38 ± 3.55% | 23.0 ± 4.01% |  | 

Row | SMILES | IC50 [1, 9] | Equilibrium Binding Constants to Tau, fA (Tyr accessible fraction) [2] | Kd [2] | IC50 (U87 glioblastoma cells) | IC50 (U251 glioblastoma cells) | IC50 (U138 glioblastoma cells) | IC50 (T98G glioblastoma cells) | IC50 ([4]; Homo sapiens, U87, U251, U138, T98G, 72 h MTT, read-out: IC50 among the Tau-expressing GBM cell models) | IC50 [3] | Ability to dissolve mature (preformed) Tau aggregates (mature Tau aggregates) | efficacy fold higher than 13 and 15 ([4]; GBM cells) | %G1 (cells in G1 phase) (U87 shCTRL cells [5]) | %G2/M (cells in G2/M phase) (U87 shCTRL cells [5]) | %G1 (cells in G1 phase) (U87 shTau cells [6]) | %G2/M (cells in G2/M phase) (U87 shTau cells [6]) | mitotic index (U87 shCTRL cells [7]) | mitotic index (U87 shTau cells [8]) | IC50 [1] | R3 peptide fibrillation (R3 peptide)
4 | O=c1c(O)c(-c2ccc(O)c(O)c2)oc2cc(O)cc(O)c12 [QCT, quercetin, reference compound] |  | 0.12 ± 0.04 | 2.4 ± 0.6 µM | > 100 µM | > 100 µM | > 100 µM | > 100 µM |  | > 100 µM | able to dissolve mature Tau aggregates |  |  |  |  |  |  |  | 17.3 ± 0.6 µM | abrogated R3 peptide fibrillation
